The source of these data is ChEMBL document CHEMBL1201862, “PubChem BioAssay data set” (2004).

Calls of active or inactive are those of the source.

Test [1] in a line: Luminescence Cell-Based Dose Response to Identify Activators of 5'UTR Stem-Loop Driven Prion Protein mRNA Translation in H4-C Neuroglioblastoma Cells. [Related pubchem assays: 1829 (Project Summary), 1814 (Primary HTS)]. In kind it is functional.
Test [2] in a line: Luminescence Cell-Based Dose Response HTS to Identify Activators of Luciferase Translation or Activity in H4 […] Cells. [Related pubchem assays: 1829 (Project Summary), 1814 (Primary HTS)]. It counts as functional.
Test [3] concerns H4. Description: Luminescence Cell-Based Dose Response HTS to Identify Activators of 5'UTR Stem-Loop Driven Prion Protein mRNA Translation in H4 Neuroglioblastoma Cells. [Related pubchem assays: 1829 (Project Summary), 1814 (Primary HTS)]. In kind it is functional. The settings on record: Homo sapiens.
The nature of test [4]: Luminescence Cell-Based Dose Response to Identify Activators of Luciferase Translation or Activity in H4-C Neuroglioblastoma Cells. [Related pubchem assays: 1829 (Project Summary), 1814 (Primary HTS)]. It counts as functional.
The nature of test [5]: Luminescence Cell-Based Dose Confirmation to Identify Activators of 5'UTR Stem-Loop Driven Alpha-Synuclein mRNA Translation in H4 Neuroglioblastoma Cells. [Related pubchem assays: 1829 (Project Summary), 1814 (Primary HTS)]. In kind it is functional.
Test [6] addresses Cytochrome P450 2C9 (Homo sapiens, UniProt P11712). The settings on record: Potency.
Test [7] can be described thus: enhancers of respiration in Yfh1-depleted yeast, dose response, Friedreich's ataxia, plus single-dose screen (AID 1465).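 Also: yeast depleted of Yfh1p frataxin homolog grown on glycerol needing respiration; WST-1 tetrazolium dye reduction as measure of cellular dehydrogenase metabolic activity.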 It counts as functional.
Test [8] concerns the target Troponin, cardiac muscle (Homo sapiens, UniProt P19429+P45379+P63316). In words: Fluorescence-based biochemical high throughput dose response assay for activators of the calcium sensitivity of cardiac Regulated Thin Filaments (RTF). [Related pubchem assays (depositor defined):AID493008, AID493018, AID504382, AID504383]. In kind it is protein-complex assay.
The target in test [9] is Eukaryotic translation initiation factor 4H (Homo sapiens, UniProt Q15056). In words: human eIF4H binding inhibitors, primary screen, translation initiation inhibitor project, biochemical, uHTS, fluorescence polarization (AID 2012). In general terms: Polarisation of emitted light reports the rotation of a fluorescent probe.
Test [10] deals with Polyadenylate-binding protein 1 (Homo sapiens, UniProt P11940). In words: PABP poly(A) RNA binding inhibitors, primary screen, biochemical, fluorescence polarization, uHTS (AID 2014).
Test [11] deals with Cytochrome P450 2D6 (Homo sapiens, UniProt P10635).
The test system of test [12] is HeLa. In words: Cytotoxicity counterscreen assay for transcriptional activators of heat shock protein 70 (Hsp70). [Related pubchem assays: 1203, 1252 ]. It counts as functional. The settings on record: Homo sapiens.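 Also: cells exposed to compound for 16 hours before readout.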
Test [13] concerns the target T1, Alkaline phosphatase, tissue-nonspecific isozyme (Homo sapiens, UniProt P05186).
T1 sequence (P05186 whole entry): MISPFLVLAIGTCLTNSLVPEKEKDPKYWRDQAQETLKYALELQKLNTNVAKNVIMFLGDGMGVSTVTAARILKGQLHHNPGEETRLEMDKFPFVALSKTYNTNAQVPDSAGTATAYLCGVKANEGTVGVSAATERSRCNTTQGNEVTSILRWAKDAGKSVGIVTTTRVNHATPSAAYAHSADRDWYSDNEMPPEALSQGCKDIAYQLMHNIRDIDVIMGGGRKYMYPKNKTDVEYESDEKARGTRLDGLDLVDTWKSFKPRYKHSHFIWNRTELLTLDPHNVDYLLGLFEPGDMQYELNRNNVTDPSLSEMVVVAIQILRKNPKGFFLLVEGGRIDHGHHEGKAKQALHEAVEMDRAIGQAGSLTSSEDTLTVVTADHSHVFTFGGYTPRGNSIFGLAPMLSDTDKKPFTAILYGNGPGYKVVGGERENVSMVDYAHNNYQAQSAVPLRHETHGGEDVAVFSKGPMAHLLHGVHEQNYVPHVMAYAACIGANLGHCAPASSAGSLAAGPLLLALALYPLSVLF

Test [14] concerns the target Cytochrome P450 2C19 (Homo sapiens, UniProt P33261). Description: Cytochrome panel assay with activity outcomes. Panel member name: p450-cyp2c19 Compounds with AC50 equal or less than 10 uM are considered active. In kind it is functional. The settings on record: read-out: AC50.
The target in test [15] is T2, Leucine aminopeptidase (Plasmodium falciparum 3D7, UniProt Q8IL11).
T2 sequence (Q8IL11 whole entry): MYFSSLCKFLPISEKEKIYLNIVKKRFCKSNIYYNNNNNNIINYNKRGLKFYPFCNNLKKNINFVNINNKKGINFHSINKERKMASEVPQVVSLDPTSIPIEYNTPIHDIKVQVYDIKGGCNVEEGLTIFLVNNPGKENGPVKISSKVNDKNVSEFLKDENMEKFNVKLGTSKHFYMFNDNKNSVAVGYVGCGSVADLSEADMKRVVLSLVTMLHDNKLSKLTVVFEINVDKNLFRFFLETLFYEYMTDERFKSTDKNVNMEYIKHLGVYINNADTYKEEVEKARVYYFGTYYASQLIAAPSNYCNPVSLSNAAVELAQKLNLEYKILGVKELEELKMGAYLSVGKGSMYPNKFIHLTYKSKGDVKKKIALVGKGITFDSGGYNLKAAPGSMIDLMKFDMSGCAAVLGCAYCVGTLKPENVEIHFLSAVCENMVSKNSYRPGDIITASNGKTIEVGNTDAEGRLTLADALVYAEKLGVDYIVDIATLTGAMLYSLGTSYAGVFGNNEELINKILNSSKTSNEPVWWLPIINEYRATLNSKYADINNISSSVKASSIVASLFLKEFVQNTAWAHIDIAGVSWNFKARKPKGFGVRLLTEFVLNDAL
Description: P. falciparum M17LAP inhibitors, primary screen, biochemical, fluorogenic H-Leu-NHMec substrate, 1536-well (AID 1619). In kind it is functional.

The target of test [16] is T3, Aminopeptidase N (Plasmodium falciparum FcB1/Columbia, UniProt O96935).
T3 sequence (O96935 whole entry): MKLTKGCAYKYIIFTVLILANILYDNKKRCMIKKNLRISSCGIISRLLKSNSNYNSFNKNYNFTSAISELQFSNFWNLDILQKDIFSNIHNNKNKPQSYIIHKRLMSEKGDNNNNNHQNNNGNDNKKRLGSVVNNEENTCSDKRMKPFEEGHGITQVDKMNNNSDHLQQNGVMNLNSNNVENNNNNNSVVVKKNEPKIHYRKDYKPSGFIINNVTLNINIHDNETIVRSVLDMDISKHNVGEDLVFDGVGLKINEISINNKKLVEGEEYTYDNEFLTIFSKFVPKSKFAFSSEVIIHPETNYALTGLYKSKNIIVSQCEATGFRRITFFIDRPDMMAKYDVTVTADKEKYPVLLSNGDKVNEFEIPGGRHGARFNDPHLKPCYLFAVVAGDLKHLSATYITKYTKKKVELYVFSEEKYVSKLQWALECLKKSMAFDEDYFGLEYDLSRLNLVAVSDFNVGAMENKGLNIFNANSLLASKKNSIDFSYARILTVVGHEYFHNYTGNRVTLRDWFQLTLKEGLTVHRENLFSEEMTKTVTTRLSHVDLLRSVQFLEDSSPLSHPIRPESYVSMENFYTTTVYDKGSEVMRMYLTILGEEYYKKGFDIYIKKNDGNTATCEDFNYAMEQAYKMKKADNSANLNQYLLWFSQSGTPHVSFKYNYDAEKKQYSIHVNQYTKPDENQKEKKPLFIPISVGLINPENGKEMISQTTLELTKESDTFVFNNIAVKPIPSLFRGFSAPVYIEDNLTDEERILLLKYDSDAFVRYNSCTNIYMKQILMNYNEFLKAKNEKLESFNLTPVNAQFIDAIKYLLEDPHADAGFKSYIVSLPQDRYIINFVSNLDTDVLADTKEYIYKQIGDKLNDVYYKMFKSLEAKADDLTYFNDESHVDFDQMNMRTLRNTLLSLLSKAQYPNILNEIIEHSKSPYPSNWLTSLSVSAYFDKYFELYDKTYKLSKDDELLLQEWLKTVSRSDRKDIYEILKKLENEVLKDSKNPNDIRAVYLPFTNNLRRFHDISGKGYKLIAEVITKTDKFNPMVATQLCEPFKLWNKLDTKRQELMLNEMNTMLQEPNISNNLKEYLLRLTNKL
Description: P. falciparum M1AAP inhibitors, biochemical, fluorogenic H-Leu-NHMec substrate, 1536-well (AID 1445). Further details: species or system Plasmodium falciparum 3D7, 3D7.

In test [17] the target is NS3 (Hepatitis C virus, UniProt A3EZJ3). Description: PubChem AID 2173. Details: species or system Hepacivirus hominis.
Test [18] has as its target FAD-linked sulfhydryl oxidase ALR (Homo sapiens, UniProt P55789). In words: inhibitors of human ALR sulfhydryl oxidase, dose response, biochemical, H2O2 detection, luminescence, cherry-pick (AID 493248).

Chain of Cytochrome P450 2C9 (P11712 whole entry): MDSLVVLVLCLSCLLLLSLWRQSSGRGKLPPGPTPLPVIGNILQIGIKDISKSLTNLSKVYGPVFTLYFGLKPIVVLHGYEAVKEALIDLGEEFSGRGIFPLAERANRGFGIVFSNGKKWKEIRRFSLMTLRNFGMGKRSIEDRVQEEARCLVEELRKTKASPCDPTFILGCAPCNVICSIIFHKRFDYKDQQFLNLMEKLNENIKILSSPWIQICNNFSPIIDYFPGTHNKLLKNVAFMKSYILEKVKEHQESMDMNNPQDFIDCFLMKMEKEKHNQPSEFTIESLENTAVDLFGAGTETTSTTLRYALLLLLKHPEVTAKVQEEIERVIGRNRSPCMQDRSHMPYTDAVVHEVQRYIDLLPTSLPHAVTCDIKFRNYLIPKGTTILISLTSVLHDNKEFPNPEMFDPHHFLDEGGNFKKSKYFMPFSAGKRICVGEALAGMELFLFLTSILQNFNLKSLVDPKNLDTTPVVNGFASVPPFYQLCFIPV
Chain of Cytochrome P450 2C19 (P33261 whole entry): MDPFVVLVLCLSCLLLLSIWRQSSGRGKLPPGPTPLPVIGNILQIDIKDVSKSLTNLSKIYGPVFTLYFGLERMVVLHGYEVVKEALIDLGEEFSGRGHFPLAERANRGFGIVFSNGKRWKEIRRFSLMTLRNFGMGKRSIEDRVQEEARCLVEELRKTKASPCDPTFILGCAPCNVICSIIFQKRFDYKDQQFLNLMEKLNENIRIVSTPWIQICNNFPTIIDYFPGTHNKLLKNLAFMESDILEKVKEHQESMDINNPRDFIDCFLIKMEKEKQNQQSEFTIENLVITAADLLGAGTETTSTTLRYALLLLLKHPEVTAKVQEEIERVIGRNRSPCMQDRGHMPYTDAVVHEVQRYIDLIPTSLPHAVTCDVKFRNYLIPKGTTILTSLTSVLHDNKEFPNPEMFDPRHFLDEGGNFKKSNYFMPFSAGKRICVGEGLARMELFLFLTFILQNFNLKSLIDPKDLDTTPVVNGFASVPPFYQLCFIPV
Chain of FAD-linked sulfhydryl oxidase ALR (P55789 whole entry): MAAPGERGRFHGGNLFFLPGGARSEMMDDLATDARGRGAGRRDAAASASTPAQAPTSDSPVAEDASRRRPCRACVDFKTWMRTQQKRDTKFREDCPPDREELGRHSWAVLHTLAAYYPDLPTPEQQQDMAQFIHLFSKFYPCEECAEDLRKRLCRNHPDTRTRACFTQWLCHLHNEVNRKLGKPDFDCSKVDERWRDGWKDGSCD
Chain of Cytochrome P450 2D6 (P10635 whole entry): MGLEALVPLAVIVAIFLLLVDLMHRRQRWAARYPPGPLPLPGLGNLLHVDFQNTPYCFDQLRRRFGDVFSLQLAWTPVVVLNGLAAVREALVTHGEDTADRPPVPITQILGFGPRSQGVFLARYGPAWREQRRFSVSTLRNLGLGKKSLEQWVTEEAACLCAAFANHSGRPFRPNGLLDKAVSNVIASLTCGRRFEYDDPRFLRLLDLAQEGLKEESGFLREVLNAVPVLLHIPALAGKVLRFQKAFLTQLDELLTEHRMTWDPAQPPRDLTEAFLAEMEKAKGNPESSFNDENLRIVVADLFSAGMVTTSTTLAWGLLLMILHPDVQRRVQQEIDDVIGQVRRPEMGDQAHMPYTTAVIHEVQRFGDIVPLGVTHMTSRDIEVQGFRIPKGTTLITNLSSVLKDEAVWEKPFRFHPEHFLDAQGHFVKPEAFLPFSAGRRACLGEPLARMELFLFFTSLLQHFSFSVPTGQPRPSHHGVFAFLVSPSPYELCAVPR
Chain of Polyadenylate-binding protein 1 (P11940 whole entry): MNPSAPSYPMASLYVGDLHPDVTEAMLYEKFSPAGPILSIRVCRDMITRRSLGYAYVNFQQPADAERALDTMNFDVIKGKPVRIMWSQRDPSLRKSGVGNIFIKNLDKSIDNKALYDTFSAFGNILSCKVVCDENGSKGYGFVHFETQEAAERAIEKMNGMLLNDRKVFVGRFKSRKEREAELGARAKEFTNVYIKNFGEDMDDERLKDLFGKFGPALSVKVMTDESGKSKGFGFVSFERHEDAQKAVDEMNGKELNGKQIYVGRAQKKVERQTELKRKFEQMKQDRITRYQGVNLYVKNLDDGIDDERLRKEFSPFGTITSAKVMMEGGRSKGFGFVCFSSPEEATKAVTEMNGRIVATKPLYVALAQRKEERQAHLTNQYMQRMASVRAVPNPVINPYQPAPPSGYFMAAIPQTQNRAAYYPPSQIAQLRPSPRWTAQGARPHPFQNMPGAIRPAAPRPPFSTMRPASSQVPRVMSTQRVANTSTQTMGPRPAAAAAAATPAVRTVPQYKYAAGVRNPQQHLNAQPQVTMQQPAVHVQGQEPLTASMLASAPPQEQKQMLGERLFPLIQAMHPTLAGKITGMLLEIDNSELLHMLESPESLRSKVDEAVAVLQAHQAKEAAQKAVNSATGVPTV
Chain of NS3 (A3EZJ3 whole entry): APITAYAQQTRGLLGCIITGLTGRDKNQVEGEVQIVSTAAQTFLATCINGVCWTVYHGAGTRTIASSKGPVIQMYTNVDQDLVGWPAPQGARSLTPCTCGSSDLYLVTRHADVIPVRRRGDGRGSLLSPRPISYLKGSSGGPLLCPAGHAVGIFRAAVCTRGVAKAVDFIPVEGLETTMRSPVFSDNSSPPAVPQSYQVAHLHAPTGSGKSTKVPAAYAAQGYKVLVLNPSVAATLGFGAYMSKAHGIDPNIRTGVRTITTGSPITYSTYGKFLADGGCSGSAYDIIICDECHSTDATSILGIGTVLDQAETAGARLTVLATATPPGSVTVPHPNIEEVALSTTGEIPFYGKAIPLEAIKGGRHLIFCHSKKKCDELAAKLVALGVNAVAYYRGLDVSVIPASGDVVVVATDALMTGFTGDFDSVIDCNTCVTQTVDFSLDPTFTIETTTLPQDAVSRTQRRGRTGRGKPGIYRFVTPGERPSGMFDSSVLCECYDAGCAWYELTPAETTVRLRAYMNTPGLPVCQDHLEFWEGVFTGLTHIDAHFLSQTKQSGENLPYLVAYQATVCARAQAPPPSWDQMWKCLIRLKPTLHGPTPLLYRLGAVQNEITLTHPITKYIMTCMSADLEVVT

For `Cc1ccc(-n2c(C)cc(/C=C3\SC(=O)NC3=O)c2C)cc1`, the concentration giving a half-maximal response (EC50) (in general, the concentration needed to bring the measured effect to its halfway point) in test [1] was 0.512 µM (active); in test [2], < 0.1 µM (inconclusive); in test [3] it was 0.749 µM (active); in test [4], 0.401 µM (active); in test [5], 0.344 µM (active).

On to `CC(C)C[C@H]1C(=O)N2CCC[C@@H]2[C@]2(O)O[C@](NC(=O)[C@H]3C=C4c5cccc6[nH]cc(c56)C[C@H]4N(C)C3)(C(C)C)C(=O)N12`, for which, in test [6], the half-maximal activity concentration (AC50) (usually the concentration giving half of the maximal activity seen) is 12.6 µM (inconclusive).

Take `CCCN1C=CC(=CC=C(C#N)C#N)C=C1`: the figures for the half-maximal effective concentration (EC50) in [7] and in [8] were > 100 µM (active) and 7.62 µM (active), respectively.

For `CCOc1ccc(NC(=O)C2CCCN2C(=O)Oc2ccccc2)cc1` (stereo unspecified), the IC50 – broadly, the concentration that gives 50% inhibition – in test [9] is > 100 µM (inactive); in test [10] it was 1.85 µM (active).

On to `CN1CCc2cc3c(cc2[C@@H]1[C@@H]1OC(=O)c2c1ccc1c2OCO1)OCO3`, for which the half-maximal activity concentration (AC50) in test [6] is 39.8 µM (inconclusive); in test [11] it was 12.6 µM (inconclusive).

For `N#C/C(=C\c1ccc(N2CCOCC2)o1)C(=O)NCCc1ccccc1`, the concentration for a half-maximal effect (EC50) in [7] was > 100 µM (active).

Consider `Cc1c(O)ccc(C(=O)CN2CCN(Cc3ccc4c(c3)OCO4)CC2)c1O`, for which the CC50 (commonly the concentration at which the toxic effect on the cells reaches its halfway point) in test [12] was > 99 µM (not active).

Turning to `CCNC(=S)NNC(=O)c1cc(CC(C)C)nc2ccccc12`, in test [13], the EC50 is reported as 63 µM (not active). For the same compound, in test [14], the concentration at half-maximal activity (AC50) is 0.178 µM (inconclusive).

`COc1ccc(S(=O)(=O)NC2=NC(=O)/C(=C/c3ccco3)S2)cc1`: the IC50 was 124 µM (active) in [15], 99.7 µM (active) in [16] and 6.31 µM (active) in test [17]. Besides, in test [18], the concentration at half-maximal activity (AC50) is 14.6 µM (active).

For `O=C(Oc1ccc(F)cc1C(=O)/C=C/c1cccs1)c1cccc([N+](=O)[O-])c1`, the half-maximal cytotoxic concentration (CC50) in test [12] was > 33 µM (not active).

With `Oc1c(/C=N/Nc2cccc3cccnc23)ccc2ccccc12`, in test [13], the EC50 is > 100 µM (not active).

Regarding `COc1ccc(C(=O)/N=c2\sc3c(C)ccc(OC)c3n2C)cc1OC`, the EC50 was 0.484 µM (active) in test [1], < 0.1 µM (inconclusive) in test [2], 0.405 µM (active) in [4] and 0.256 µM (active) in [5].
